We go through four compounds from publication PMC12647759 (Scientific Reports, 2025).

The assay has as its target T1, human PLCγ1 (Homo sapiens, UniProt P19174).
T1 construct: expressing the full-length polypeptides of human PLCε, PLCβ4, PLCδ1 and PLCγ1 as FLAG fusions; made in house; host or cells: Expi293F cells
T1 sequence (P19174 1-1290): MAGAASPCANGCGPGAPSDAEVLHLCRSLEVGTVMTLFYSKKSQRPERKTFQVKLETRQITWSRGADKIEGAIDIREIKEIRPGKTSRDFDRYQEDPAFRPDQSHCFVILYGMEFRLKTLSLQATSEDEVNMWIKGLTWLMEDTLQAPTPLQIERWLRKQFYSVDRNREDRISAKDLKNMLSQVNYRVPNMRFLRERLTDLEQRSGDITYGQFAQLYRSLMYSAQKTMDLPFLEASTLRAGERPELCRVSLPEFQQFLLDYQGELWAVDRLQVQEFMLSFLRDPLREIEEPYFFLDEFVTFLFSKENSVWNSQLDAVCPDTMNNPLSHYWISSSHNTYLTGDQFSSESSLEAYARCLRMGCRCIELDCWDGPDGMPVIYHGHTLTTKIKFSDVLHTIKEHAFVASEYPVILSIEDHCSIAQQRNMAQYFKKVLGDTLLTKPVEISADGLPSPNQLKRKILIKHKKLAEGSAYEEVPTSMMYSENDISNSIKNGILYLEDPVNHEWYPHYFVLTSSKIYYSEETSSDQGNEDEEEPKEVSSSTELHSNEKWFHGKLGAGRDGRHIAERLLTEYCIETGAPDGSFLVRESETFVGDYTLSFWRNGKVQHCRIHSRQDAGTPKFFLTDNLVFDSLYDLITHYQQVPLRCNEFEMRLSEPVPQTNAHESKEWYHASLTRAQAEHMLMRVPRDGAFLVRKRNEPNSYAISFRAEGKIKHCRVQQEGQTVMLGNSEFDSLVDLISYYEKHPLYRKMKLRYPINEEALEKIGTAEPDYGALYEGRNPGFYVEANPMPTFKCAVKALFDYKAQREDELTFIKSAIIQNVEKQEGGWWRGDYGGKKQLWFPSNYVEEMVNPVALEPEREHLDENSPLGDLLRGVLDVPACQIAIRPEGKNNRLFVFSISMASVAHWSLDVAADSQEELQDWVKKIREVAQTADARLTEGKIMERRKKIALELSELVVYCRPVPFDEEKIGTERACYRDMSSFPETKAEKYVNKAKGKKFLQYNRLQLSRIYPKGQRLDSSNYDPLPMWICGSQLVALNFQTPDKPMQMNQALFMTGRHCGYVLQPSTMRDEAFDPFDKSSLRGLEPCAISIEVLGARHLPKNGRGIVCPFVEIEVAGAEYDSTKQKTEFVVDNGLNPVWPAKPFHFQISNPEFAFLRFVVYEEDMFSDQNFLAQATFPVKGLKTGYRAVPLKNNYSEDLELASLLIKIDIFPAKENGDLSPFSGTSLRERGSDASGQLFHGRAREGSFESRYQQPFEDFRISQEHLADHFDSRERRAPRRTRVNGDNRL
As to the kind of experiment: In vitro PLC assay using fluorogenic substrate Compound 1, PLCγ1. In kind it is biochemical. To be noted: for IC50: purified PLCγ1, fluorogenic substrate Compound 1, read-out: IC50, inhibition of PLCγ1 (hydrolysis of Compound 1). As to the method:
Ten µl of 2 × substrate solutions (50 mM HEPES pH7.2, 200 mM NaCl, 0.2 mM CaCl2, 0.4 mM DTT, 0.4 µM EDTA, 0.02% gelatin, 0.2% sodium cholate and 60 µM Compound 1) were added to each well of a 384-well plate (CONING #3573) containing 10 µl of purified PLCε (120 ng) and incubated with shaking at 30 °C for 3 h. After terminating the reaction by the addition of 2 µl of 5 mM EDTA, the fluorescence emission was measured at 520 nm with the excitation at 485 nm by a microplate reader (POLARstar Omega-25). For measuring inhibition by compounds for HTS, the reactions were conducted at RIKEN Center for Sustainable Resource Science (CSRS) as described above except that 5 µl of compound solution and 5 µl of purified PLCe (120 ng) were added to each well. Solution dispensing and fluorescence detection were conducted by using an automated dispenser (EDR-384, Biotec) and a hybrid multi-mode microplate reader (Synergy H4, Biotec), respectively. For determination of the IC50 values for ZPT and Zn^2+, the EDTA concentration was reduced to one-tenth to avoid its zinc-chelating effect. For assay of the other PLC classes, the reactions were performed similarly except that PLCβ4 (5 ng), PLCδ1 (0.1 ng) or PLCγ1 (0.3 ng) was used instead of PLCε.

Structures are written as SMILES.

The term IC50 denotes the concentration needed to halve the response being measured. On to `C[n+]1cc2c3c(ccc2c2ccc4cc5c(cc4c21)OCO5)OCO3` [Sanguinarine, sanguinarine], for which the half-maximal inhibitory concentration (IC50) was 1.6 µM.

In the case of `O=S(=O)([O-])[O-].[Zn+2]` [ZnSO4], for the setting “Compound 1 as substrate, varying concentrations”, the “inhibitory activity toward PLCγ” value is reported as “without exhibiting any noticeable inhibitory activities”.

Turning to `COc1ccc2c(c[n+](C)c3c4cc5c(cc4ccc23)OCO5)c1OC` [chelerythrine], the IC50 came to 1.8 µM.

For `CCCCCCOc1ccc2c(c1)Oc1cc(OP(=O)(O)O[C@H]3[C@H](O)[C@@H](O)[C@H](OP(=O)(O)O)[C@@H](O)[C@H]3O)ccc1C21OC(=O)c2ccccc21` (stereo partly shown) [compound 1], the concentration for half-maximal inhibition (IC50) was determined as 8.7 µM.
